Source: patent publication US11696960B2, “Methods and compounds for detection and binding of aldehydes” (UNIVERSITY OF OTTAWA, priority 2017, dated 2023)

Columns and labels:
[1] = Hydrazone formation with glucose under physiological conditions (interference test); settings: 37° C., 1 PBS, pH=7.4, within 4 h of incubation
[2] = Hydrazo-CEST MRI phantom imaging (3 T and 7 T) and in situ hydrazone formation
Description: In the upper panel, a Phantom image and Z-spectra of hydrazine 2f and hydrazones 3f and 4f were acquired at the indicated field strength, 37° C., pH 7.4, and 40 mM concentration.
Values indicate the % MTRasym±the standard deviation of the off-resonance measurements once the system had reached steady state.
The kinetics of Hydrazo-CEST signal production through hydrazone formation were also evaluated in the MRI at 37° C. in 1×PBS at pH=7.4 (FIG. 28). Either PBS or a PBS solution of 2-formylbenzenesulfonic acid at a final concentration of 20 mM was injected into the imaging phantom, and Z-spectra were acquired every 4.5 min to monitor hydrazone formation.
A single saturation peak at 6.4 ppm was observed 4.5 min after aldehyde injection. […] This MRI data confirms that Hydrazo-CEST probes are rapidly activated by aldehydes under physiological conditions, and are readily detectable by 7 T MRI. Both hydrazine and hydrazone functionalities are utilized in medications broadly spanning indications from anti-infectives and anti-parasitics, to anti-cancer agents.

[3] = Z-spectra / CEST signal production (% MTRasym) on 300 MHz NMR; settings: for CEST-MRI signal generation (in words): Z-spectra, 37° C., pH 7.4, 40 mM; for CEST signal production: hydrazone with o-sulfobenzaldehyde, Z-spectrum (FIG. 19)
Description: FIG. 27 provides Z-spectra of compounds 8b, 10a, 12, and 11 for Panels A to D, respectively. […] The absence of the hydrazone proton through the formation of a pyrazole also completely abolishes CEST-MRI signal (Panel D). Raw data points (S/So are shown as black circles), exchangeable proton and water Lorentzian curves, and CEST-MRI signal production MTRasym (%), are also shown. All Z-spectra are obtained at 37° C. and pH 7.4 with 40 mM compound solutions in 10:1 PBS:D2O unless otherwise indicated.
Electron donating (OH, OCH3) and electron-withdrawing (I, SO3, NO2) substituents were appended at the 5-position of N-amino anthranilic acid (compounds 2b-2f), both acetaldehyde (4b-4f) or 2-formylbenzenesulfonic acid-derived hydrazones (3b-3f) were prepared, and Z-spectra were acquired in 1:10 D2O:PBS at pH 7.4 on a 300 MHz NMR.
In this way, per molar signal output could be compared across hydrazone series to examine electronic contributions to Hydrazo-CEST.
(§1) The MRI contrast produced by CEST probes is dependent upon voxel-wise concentration, however previous investigations have reported non-linear concentration relationships for CEST contrast agents. In order to evaluate this dependence for Hydrazo-CEST compounds, Z-spectra were acquired for acetaldehyde (4b-4f) and 2-formylbenzenesulfonic acid-derived hydrazones (3b-3f) on a 300 MHz NMR from 5 mM to 40 mM, or the maximum solubility of the compound in neutral buffer. The dynamic range for Hydrazo-CEST signal production from each compound was then plotted using the maximum signal for each compound (6.4±0.4 ppm). Within the series of acetaldehyde-derived hydrazones, the 5-methoxy- (4f) and 5-hydroxy-substituted (4e) analogs had the broadest dynamic range for imaging signal, with the 5-methoxy-derivative showing the higher absolute % MTRasym and the most linear concentration-dependent signal production (R^2=0.98).
Z-spectra were acquired on a 300 MHz NMR in 10:1 PBS:D2O at 37° C., pH 7.4, at 40 mM, or the indicated concentration providing maximum solubility. Hydrazones were formed between 2f and (Panel A) 3-aminopropanal, (Panel B) crotonaldehyde, (Panel C) glyceraldehyde, and (Panel D) pyruvate.

[4] = Hydrazone formation kinetics under pseudo-first order conditions in 1×PBS at 37° C.; settings: carbonyl acetaldehyde
Description: The carboxylic acid ortho to the hydrazine is critical to the stability of the formed hydrazone product. All reactions were performed in 1×PBS at 37° C., and points represent mean±s.d. for n=3 trials. […]

[5] = Hydrazone formation kinetics and reaction completion in 1×PBS at 37° C.
Description: (§2) Repeating the methodology, however at 37° C. in 100% 1×PBS, determined the kobs for the reaction of 5-methoxy N-amino anthranilic acid (2f) and related analogs with 2-formylbenzenesulfonic acid (FIG. 13) and acetone.
(§3) Hydrazone stability was assayed both spectrophotometrically (FIG. 13, Panel A), as well as by HPLC (FIG. 13, Panel B). […] Since the signal produced by Hydrazo-CEST depends on the hydrazone form of the probe, the faster-forming and longer-lived the hydrazone product under physiological conditions, the better the imaging signal evolved and the more potentially sensitive the imaging technique.

[6] = Preliminary in vitro toxicity assays
[7] = Hydrazone formation kinetics and reaction completion in 1×PBS at 37° C.; settings: for kobs: pseudo-first order, carbonyl o-sulfobenzaldehyde
Description: (§4) The hydrazone peak is shown (r.t.=17.5 min for MeONA^3 and 17.2 min for MeOPH) at the time points indicated, showing a loss of the MeOPH-derived hydrazone but stability of the MeONA^3-derived product over time. All reactions were performed in 1×PBS at 37° C., and points represent mean±s.d. for n=3 trials
FIG. 13, discussed above, illustrates that the o-carboxylic acid contributes to substantial reaction completion as well as extended stability of the product hydrazone under physiological conditions. […] The hydrazone peak is shown (r.t.=17.5 min for 2f and 17.2 min for MeOPH) at the time points indicated. All reactions were performed in 1×PBS at 37° C., and points represent mean±s.d. for n=3 trials.
as §2, §3

[8] = Solubility of hydrazones in buffer; format: physicochemical
Description: as §1
In addition to local probe concentrations, micro-environmental pH can modify CEST signal production, as pH directly impacts ksw. The effect of pH on % MTRasym was evaluated for the unsubstituted, 5-hydroxy-, and 5-methoxy-substituted hydrazones derived from acetaldehyde (4a, 4e, 4f) and 2-formylbenzenesulfonic acid (3a, 3e, 3f). […] The hydroxy- and methoxy-substituted aryl-hydrazones (3e, 3f) gave better CEST signal production from pH 6.5-8.0, but both were insoluble at 40 mM at pH 6.0. The differential pH responses associated with the Hydrazo-CEST probes studied are justified by the higher predicted electron density around the ring-proximal nitrogen of the aliphatic versus aromatic hydrazones, which would favor the protonated form of the hydrazo moiety at higher pH values.

[9] = Hydrazone product stability (spectrophotometric, HPLC); format: physicochemical; settings: 1×PBS, 37° C.
Description: as §4
The carboxylic acid ortho to the hydrazine is critical to the stability of the formed hydrazone product. All reactions were performed in 1×PBS at 37° C., and points represent mean±s.d. for n=3 trials.
as §3

[10] = Trapping of MDA by N-amino anthranilic acid probe, monitored by 1H-NMR and fluorimetry; settings: incubation of NA^3 acid probe and MDA, 1H-NMR
Description: N-amino anthranilic acids can act as specific sensors for malondialdehyde. N-amino anthranilic acid reacts rapidly with MDA to form a fluorescent pyrazole. A proposed 2-step reaction scheme for the formation of the MDA-derived pyrazole (5) from 5-methoxy-N-amino anthranilic acid (3) is shown:
The formation of the MDA-derived pyrazole ring was monitored by ^1H-NMR. Hydrazone (4) formation happens within less than 1 min of incubation of the NA^3 acid probe and MDA. The pyrazole product (5) forms rapidly as well, and reaches completion within 20 min. The fluorescence ‘turn-on’ of the N-amino anthranilic acid probe is specific for MDA.

[11] = Time-lapse imaging of acetaldehyde-derived hydrazone formation in PBS; settings: room temperature
Description: N-Amino anthranilic esters can be fast-reacting aldehyde sensors. N-amino anthranilate methyl ester reacts rapidly with endogenous reactive aldehydes. The reaction of 5-methoxy-N-amino anthranilate methyl ester (1) with a reactive aldehyde results in the formation of […] in PBS at room temperature is shown: […]

[12] = reaction with butanal, 1:10 DMF:PBS solution; cited from earlier work
[13] = system: hippocampal CA3 neurodegeneration; settings: TMT rat model, Wood et al. (2006); cited from earlier work

COc1ccc(NN)c(C(=O)O)c1 [Compound 2f, 5-methoxy N-amino anthranilic acid]
hydrazone formation with D-glucose [1]: no hydrazone formation | maximum plateau % MTRasym ([2]; 40 mM hydrazine plus 20 mM 2-formylbenzenesulfonic acid, 37° C., 1×PBS, pH 7.4): 4.6±0.7 % MTRasym | CEST contrast in MRI (in words) ([2]; 37° C., pH 7.4, 40 mM): produced no CEST contrast | Hydrazo-CEST signal as share of maximal signal ([2]; within the first 4.5 min after aldehyde injection): > 50% | CEST-MRI signal generation (in words) [3]: little CEST-MRI signal | kobs [4]: 0.012 ± 0.001 min⁻¹ | kobs ([5]; pseudo-first order, 37° C., carbonyl acetone): 0.017 ± 0.0004 min⁻¹ | product formation ([5]; reaction with acetone, 37° C. (data not shown)): < 25% | in vitro toxicity [6]: initial safety | kobs [7]: 0.112 ± 0.03 min⁻¹ | reaction completion (hydrazone formation) ([7]; within 30 min of initiation): ~90%

O=C(O)c1ccccc1NN=Cc1ccccc1S(=O)(=O)O [Compound 3a]
CEST signal production [3]: ~5%

COc1ccc(NN=Cc2ccccc2S(=O)(=O)O)c(C(=O)O)c1 [Compound 3f]
solubility ([8]; 40 mM, pH 6.0): insoluble | stability of hydrazone product [9]: long-term stability

CC=NNc1ccccc1C(=O)O [Compound 4a]
solubility ([8]; neutral buffer): limited solubility beyond 20 mM | solubility ([8]; pH 6.0-8.0): completely soluble

C/C=N/Nc1ccc(OC)cc1C(=O)O [Compound 4f]
solubility ([8]; 40 mM, pH 6.5): not soluble | MTRasym ([3]; 5 mM): 9% | CEST-MRI signal generation (in words) [3]: substantial signal

COc1ccc(-n2cccn2)c(C(=O)O)c1 [Compound 5]
CEST-MRI signal generation (in words) [3]: Complete abolishment of signal production | time to completion of pyrazole product formation [10]: ≤ 20 min

COc1ccc(N/N=C/C(O)CO)c(C(=O)O)c1 (stereo not shown) [Compound 5c]
CEST-MRI signal generation (in words) [3]: limited signal production

COC(=O)c1cc(OC)ccc1NN [Compound 7, 5-methoxy-N-amino anthranilate methyl ester, reference compound]
time to hydrazone formation after aldehyde addition [11]: ≤ 1 s | kobs [7]: 0.0008 ± 5.5e-05 min⁻¹

C/C=N/Nc1ccc(OC)cc1C(=O)OC [Compound 8b, reference compound]
CEST-MRI signal generation (in words) [3]: complete loss of the CEST effect | CEST-MRI signal generation (in words) ([3]; listed as compound 302): prevents any CEST-MRI signal generation

COc1ccc(NN)cc1.Cl.Cl [Compound 9, 4-methoxyphenyl hydrazine dihydrochloride, reference compound]
kobs [7]: 0.119 ± 0.02 min⁻¹

O=C(O)c1cccc(O)c1 [Compound 12, 3-Hydroxybenzoic acid, reference compound]
CEST-MRI signal generation (in words) [3]: nearly completely abolishes signal production

NNc1ccccc1C(=O)O [Compound 101, N-amino anthranilic acid]
pseudo-first-order rate constant (kobs) [12]: 1.5 ± 0.2 min⁻¹

O=C(O)c1cccnc1N/N=C/c1ccccc1S(=O)(=O)O [Compound 319]
CEST signal production [3]: ~25%

ONCc1ccccc1 [N-benzylhydroxylamine]
protection against neurodegeneration [13]: provided protection against neurodegeneration
